# Laboratory results reported in PubChem BioAssay AID608 (Sanford-Burnham Center for Chemical Genomics, 2007).
# The source made the active and inactive calls. How the calls were made is not given here.
# Molecular target: Peptidyl-prolyl cis-trans isomerase FKBP1A (Homo sapiens) (UniProt P62942)
# Assay: FKBP12 binders, biophysical, NMR detection (AID 608)
# Details: NMR binding, purified FKBP12
# Peptidyl-prolyl cis-trans isomerase FKBP1A (Homo sapiens), sequence (P62942 whole entry, looked up): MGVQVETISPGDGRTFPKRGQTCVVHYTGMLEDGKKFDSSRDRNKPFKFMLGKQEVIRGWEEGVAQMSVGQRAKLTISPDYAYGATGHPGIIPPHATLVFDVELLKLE
row,SMILES,Kd
1,O=C(O)CCn1cncn1,> 4 mM (inactive)
2,Nc1nc(O)c(C2=c3cc(Cl)ccc3=NC2=O)s1,> 4 mM (inactive)
3,C(=Nn1cnnc1)c1ccccc1,> 4 mM (inactive)
4,Cn1nc(C(=O)NCc2cccnc2)c2ccccc2c1=O,> 4 mM (inactive)
5,Nc1nc(-c2ccc(O)cc2)cs1,> 4 mM (inactive)
6,C=CC(=O)N1CC2CC(C1)c1cccc(=O)n1C2 (centres undefined),> 4 mM (inactive)
7,COc1ccc(-c2cc3nc4n(c(=O)c3s2)CCC4)cc1,> 4 mM (inactive)
8,CC(=O)NC(=S)Nc1nc2ccccc2n1C(C)=O,> 4 mM (inactive)
9,O=C(CN1CCOCC1)Nc1cccc(Br)c1,> 4 mM (inactive)
10,CC(=O)Nc1ccc(-c2cn3ccsc3n2)cc1,> 4 mM (inactive)
11,Cc1cc(C)n2nc(NCc3ccccc3)nc2n1,> 4 mM (inactive)
12,O=C1CC(=O)N(c2ccccc2)c2ccccc21,> 4 mM (inactive)
13,CC(=O)Nc1sccc1C(N)=O,> 4 mM (inactive)
14,CC(C)=CC(=O)Nc1ccc2c(c1)OCO2,> 4 mM (inactive)
15,CSc1ccc(C(=S)N2CCN(C)CC2)cc1,> 4 mM (inactive)
16,Nc1nc(-c2ccncc2)cs1,> 4 mM (inactive)
17,COC(=O)c1cc(-c2c[nH]c3ccccc23)n[nH]1,> 4 mM (inactive)
18,CN(C)S(=O)(=O)NCc1ccc2c(c1)OCO2,> 4 mM (inactive)
19,COc1c2c(cc3c1OCO3)CCN(C)C2,> 4 mM (inactive)
20,Cc1[nH]n(-c2ccccc2)c(=O)c1[N+](=O)[O-],> 4 mM (inactive)
21,O=C(NC1=NCCS1)c1ccc2snnc2c1,> 4 mM (inactive)
22,S=C1NC(=S)NC(c2ccc3c(c2)OCO3)N1,> 4 mM (inactive)
23,Cc1cc(C)n(/N=C\c2cccs2)c(=O)c1C(N)=O,> 4 mM (inactive)
24,Cc1ccc(C(=O)NC2=NCCS2)o1,> 4 mM (inactive)
25,CSc1ccccc1NC(=O)Cn1c(-c2cscn2)nc2ccccc21,> 4 mM (inactive)
26,Cc1cc(=O)oc2cc3c(cc12)OCCO3,> 4 mM (inactive)
27,OCc1cccc2c1OCCO2,> 4 mM (inactive)

row,SMILES,Kd
1,NC(=O)CS(=O)(=O)c1ccc2ccccc2c1,> 4 mM (inactive)
2,COc1ccc(/C=C2\NC(=S)N(C)C2=O)cc1O,> 4 mM (inactive)
3,O=C(Nc1ccon1)c1csc2ccccc12,> 4 mM (inactive)
4,Cn1c(=O)c2c(ncn2CCNC2=NCCC2)n(C)c1=O,> 4 mM (inactive)
5,Oc1ccc(C2SCCS2)cc1,> 4 mM (inactive)
6,CNC(=O)COc1cccc2c1CCNC2=O,> 4 mM (inactive)
7,CC(=O)Nc1ccc(NC2SC(=O)NC2=O)cc1 (centres undefined),> 4 mM (inactive)
8,O=C(Nc1ccon1)c1cccc(C(F)(F)F)c1,> 4 mM (inactive)
9,C=C[C@@](C)(O)CCC1C(=C)C[C@H](O)C2C(C)(C)CCCC12C (some centres undefined),> 4 mM (inactive)
10,Cc1cc(C)n2nc(C(=O)NCc3ccco3)nc2n1,> 4 mM (inactive)
11,CCOC(=O)c1csc(N)n1,> 4 mM (inactive)
12,CN1CCN(C(=O)C2CCCNC2)CC1 (centres undefined),> 4 mM (inactive)
13,COc1ccc2cc1Oc1ccc(cc1)C[C@H]1c3c(cc4c(c3Oc3cc5c(cc3OC)CCN(C)[C@@H]5C2)OCO4)CCN1C,> 4 mM (inactive)
14,CC1(C)N=C2C(=[N+]1[O-])CCC/C2=N\O,> 4 mM (inactive)
15,CC(=O)Nc1cccc(N2CCCC2=O)c1,> 4 mM (inactive)
16,Cc1cccc(N2C(=O)CC(=O)NC2=O)c1,> 4 mM (inactive)
17,CCOC(=O)c1ccc(NS(=O)(=O)N2CCOCC2)cc1,inactive
18,CC(=O)O[C@@H]1CC2C(C)(C)C(=O)C=C[C@]2(C)C2CC[C@@]3(C)[C@H](c4ccoc4)OC(=O)[C@H]4O[C@]43[C@@]21C (some centres undefined),> 4 mM (inactive)
19,Cc1cccc(-c2nnc(-c3ccc(N)cc3)o2)c1,> 4 mM (inactive)
20,c1ccc(Cn2cccc2)nc1,> 4 mM (inactive)
21,COc1ccc(N=C2NC(=O)CS2)cc1,> 4 mM (inactive)
22,Nc1csc(C(=O)O)c1,> 4 mM (inactive)
23,Cc1cc(C)n(-c2cccc3cccnc23)n1,> 4 mM (inactive)
24,NC(=O)NCCCC(N)C(=O)O (centres undefined),> 4 mM (inactive)
25,S=c1[nH]ncn1-c1ccccc1,> 4 mM (inactive)
26,O=[N+]([O-])c1cccc2c1nnn2C(CO)OCCO (centres undefined),> 4 mM (inactive)
27,Nc1ccc(OC(F)(F)F)cc1,> 4 mM (inactive)
